# Results from ChEMBL document CHEMBL3885881, “DrugMatrix”.
# Species on record: Rattus norvegicus
# Test: DrugMatrix - Regimen: Daily Repeat
# Format: toxicity, organism-based, Sprague-Dawley
# Design: regimen Daily Repeat, gender Male, age 6-8 weeks
# Conditions: in vivo, po, route oral GAVAGE, […]; for ABSOLUTE BASOPHIL / ABSOLUTE EOSINOPHIL / ABSOLUTE LYMPHOCYTE / ABSOLUTE MONOCYTE / ABSOLUTE SEGMENTED NEUTROPHIL / BASOPHIL / EOSINOPHIL / ERYTHROCYTE COUNT / HEMATOCRIT / HEMOGLOBIN / LEUKOCYTE COUNT / LYMPHOCYTE / MEAN CORPUSCULAR HEMOGLOBIN / MEAN CORPUSCULAR HEMOGLOBIN CONCENTRATION / MEAN CORPUSCULAR VOLUME / MONOCYTE / NEUTROPHIL / NUCLEATED RED BLOOD CELLS / PLATELET COUNT: tissue Blood; for ALANINE AMINOTRANSFERASE / ALBUMIN / ALKALINE PHOSPHATASE / ASPARTATE AMINOTRANSFERASE / BLOOD UREA NITROGEN / CARBON DIOXIDE / CHLORIDE / CHOLESTEROL / CREATINE PHOSPHOKINASE / CREATININE / GLUCOSE / LACTATE DEHYDROGENASE / LIPASE / PHOSPHORUS / POTASSIUM / SODIUM / TOTAL BILIRUBIN / TOTAL PROTEIN / URIC ACID: tissue Plasma
# [1] = 0 mg/kg, 72 h, dose level Control, time 3 day
# [2] = 0 mg/kg, 120 h, dose level Control, time 5 day
# [3] = 10 mg/kg, 72 h, dose level Low, time 3 day
smiles,measurement,setting,value
COc1cc(N)c(Cl)cc1C(=O)NC1CCN(CCCOc2ccc(F)cc2)CC1OC (centres undefined) [CISAPRIDE],ABSOLUTE BASOPHIL,[1],0 CELLS/uL
same,ABSOLUTE EOSINOPHIL,[1],13.67 CELLS/uL
same,ABSOLUTE LYMPHOCYTE,[1],10069.5 CELLS/uL
same,ABSOLUTE MONOCYTE,[1],50 CELLS/uL
same,ABSOLUTE SEGMENTED NEUTROPHIL,[1],516.83 CELLS/uL
same,BASOPHIL,[1],0%
same,EOSINOPHIL,[1],0.17%
same,ERYTHROCYTE COUNT,[1],5.44 x10E6/uL
same,HEMATOCRIT,[1],33.88%
same,HEMOGLOBIN,[1],13.23 G/DL
same,LEUKOCYTE COUNT,[1],10.65 x10E3/uL
same,LYMPHOCYTE,[1],94.67%
same,MEAN CORPUSCULAR HEMOGLOBIN,[1],24.37 pg
same,MEAN CORPUSCULAR HEMOGLOBIN CONCENTRATION,[1],39.05 G/DL
same,MEAN CORPUSCULAR VOLUME,[1],62.38 fL
same,MONOCYTE,[1],0.67%
same,NEUTROPHIL,[1],4.5%
same,NUCLEATED RED BLOOD CELLS,[1],0.33 /100WBC
same,PLATELET COUNT,[1],414.5 x10E3/uL
same,ALANINE AMINOTRANSFERASE,[1],72 u/L
same,ALBUMIN,[1],3.75 G/DL
same,ALKALINE PHOSPHATASE,[1],375 u/L
same,ASPARTATE AMINOTRANSFERASE,[1],87.5 u/L
same,BLOOD UREA NITROGEN,[1],14 mg/dL
same,CARBON DIOXIDE,[1],27.5 mmol/L
same,CHLORIDE,[1],95.83 MEQ/L
same,CHOLESTEROL,[1],68.5 mg/dL
same,CREATINE PHOSPHOKINASE,[1],284.33 u/L
same,CREATININE,[1],0.16 mg/dL
same,GLUCOSE,[1],156.67 mg/dL
same,LACTATE DEHYDROGENASE,[1],101.83 u/L
same,LIPASE,[1],9.67 u/L
same,PHOSPHORUS,[1],10.33 mg/dL
same,POTASSIUM,[1],5.22 MEQ/L
same,SODIUM,[1],137.67 MEQ/L
same,TOTAL BILIRUBIN,[1],0.13 mg/dL
same,TOTAL PROTEIN,[1],5.43 G/DL
same,URIC ACID,[1],0.8 mg/dL
same,ABSOLUTE BASOPHIL,[2],0 CELLS/uL
same,ABSOLUTE EOSINOPHIL,[2],20.67 CELLS/uL
same,ABSOLUTE LYMPHOCYTE,[2],11518.33 CELLS/uL
same,ABSOLUTE MONOCYTE,[2],47 CELLS/uL
same,ABSOLUTE SEGMENTED NEUTROPHIL,[2],614 CELLS/uL
same,BASOPHIL,[2],0%
same,EOSINOPHIL,[2],0.17%
same,ERYTHROCYTE COUNT,[2],5.61 x10E6/uL
same,HEMATOCRIT,[2],34.25%
same,HEMOGLOBIN,[2],13.38 G/DL
same,LEUKOCYTE COUNT,[2],12.2 x10E3/uL
same,LYMPHOCYTE,[2],94.33%
same,MEAN CORPUSCULAR HEMOGLOBIN,[2],23.83 pg
same,MEAN CORPUSCULAR HEMOGLOBIN CONCENTRATION,[2],39.08 G/DL
same,MEAN CORPUSCULAR VOLUME,[2],61.03 fL
same,MONOCYTE,[2],0.33%
same,NEUTROPHIL,[2],5.17%
same,NUCLEATED RED BLOOD CELLS,[2],0 /100WBC
same,PLATELET COUNT,[2],941.83 x10E3/uL
same,ALANINE AMINOTRANSFERASE,[2],68.83 u/L
same,ALBUMIN,[2],4.12 G/DL
same,ALKALINE PHOSPHATASE,[2],492.67 u/L
same,ASPARTATE AMINOTRANSFERASE,[2],83.33 u/L
same,BLOOD UREA NITROGEN,[2],14 mg/dL
same,CARBON DIOXIDE,[2],37 mmol/L
same,CHLORIDE,[2],98.67 MEQ/L
same,CHOLESTEROL,[2],56.5 mg/dL
same,CREATINE PHOSPHOKINASE,[2],167.33 u/L
same,CREATININE,[2],0.17 mg/dL
same,GLUCOSE,[2],157.5 mg/dL
same,LACTATE DEHYDROGENASE,[2],104.83 u/L
same,LIPASE,[2],10 u/L
same,PHOSPHORUS,[2],10.43 mg/dL
same,POTASSIUM,[2],5.46 MEQ/L
same,SODIUM,[2],143.87 MEQ/L
same,TOTAL BILIRUBIN,[2],0.17 mg/dL
same,TOTAL PROTEIN,[2],5.72 G/DL
same,URIC ACID,[2],0.85 mg/dL
same,ABSOLUTE BASOPHIL,[3],0 CELLS/uL
same,ABSOLUTE EOSINOPHIL,[3],28.67 CELLS/uL
same,ABSOLUTE LYMPHOCYTE,[3],6489.33 CELLS/uL
same,ABSOLUTE MONOCYTE,[3],15.33 CELLS/uL
same,ABSOLUTE SEGMENTED NEUTROPHIL,[3],433.33 CELLS/uL
same,BASOPHIL,[3],0%
same,EOSINOPHIL,[3],0.33%
same,ERYTHROCYTE COUNT,[3],5.4 x10E6/uL
same,HEMATOCRIT,[3],33.3%
same,HEMOGLOBIN,[3],13.8 G/DL
same,LEUKOCYTE COUNT,[3],6.97 x10E3/uL
same,LYMPHOCYTE,[3],93%
same,MEAN CORPUSCULAR HEMOGLOBIN,[3],25.63 pg
same,MEAN CORPUSCULAR HEMOGLOBIN CONCENTRATION,[3],41.53 G/DL
same,MEAN CORPUSCULAR VOLUME,[3],61.73 fL
same,MONOCYTE,[3],0.33%
same,NEUTROPHIL,[3],6.33%
same,NUCLEATED RED BLOOD CELLS,[3],0 /100WBC
same,PLATELET COUNT,[3],546 x10E3/uL
same,ALANINE AMINOTRANSFERASE,[3],94.67 u/L
same,ALBUMIN,[3],3.93 G/DL
same,ALKALINE PHOSPHATASE,[3],442.33 u/L
same,ASPARTATE AMINOTRANSFERASE,[3],96.33 u/L
same,BLOOD UREA NITROGEN,[3],14.33 mg/dL
same,CARBON DIOXIDE,[3],26 mmol/L
same,CHLORIDE,[3],96.33 MEQ/L
same,CHOLESTEROL,[3],72.67 mg/dL
same,CREATINE PHOSPHOKINASE,[3],359.33 u/L
same,CREATININE,[3],0.12 mg/dL
same,GLUCOSE,[3],150 mg/dL
same,LACTATE DEHYDROGENASE,[3],116.67 u/L
same,LIPASE,[3],12 u/L
same,PHOSPHORUS,[3],10.9 mg/dL
same,POTASSIUM,[3],5.56 MEQ/L
same,SODIUM,[3],139.97 MEQ/L
same,TOTAL BILIRUBIN,[3],0.2 mg/dL
same,TOTAL PROTEIN,[3],5.53 G/DL
same,URIC ACID,[3],0.7 mg/dL
